The values that follow come from patent publication US9950038B2, “Methods and compositions for inhibiting delayed graft function” (THE TRUSTEES OF THE UNIVERSIY OF PENNSYLVANIA, priority 2011, dated 2018).

For test [1], the system named is patients with Class 3-4 heart failure. Put plainly: Administration to patients with Class 3-4 heart failure. The format is in vivo, humans. The following applies: administered for 5 weeks.
The subject of test [2] is humans with acute myocardial infarction. As to the kind of experiment: Infusion at reperfusion in humans with acute myocardial infarction. The format is in vivo. An excerpt: Lower panel illustrates individual data. […] Lower panel illustrates individual data.
(§1) This mechanism involves improved ventricular relaxation which is known to be most sensitive to ATP depletion.

For test [3], the system named is conscious dogs with pacing-induced DCM. Put plainly: Myocardial glucose uptake during hyperinsulinemic euglycemic clamp in conscious dogs with pacing-induced DCM. The format is in vivo. Conditions: basal and insulin-stimulated. From the text: This provides glycolytic ATP without further increases in mitochondrial ROS production. […] This provides the rationale for the use of the native peptide in the treatment of post-ischemic allograft injury.

The subject of the next test is conscious dogs. Put plainly: Recovery after coronary artery occlusion and reperfusion in conscious dogs. In kind it is in vivo. Conditions: 1.5 pmol/kg/min at the time of reperfusion following coronary artery occlusion.
Excerpt: CBF and respective regional wall thickening responses to CAO and CAR. The CBF response (top) is characterized by reactive hyperemia followed by gradual return of flow to pre-occlusion levels in both control and GLP-1-treated animals. The different patterns of recovery of regional contractile function between the two groups are illustrated (bottom).
as §1

Test [4] deals with conscious pigs with biventricular failure. Put plainly: Chronic conscious pig model of biventricular failure with impaired renal blood flow. Conditions: short term (2 hours) infusion, 1.5 pmol/kg/min. In kind it is in vivo. An excerpt: FIG. 4, comprising FIG. 4A and 4B show impaired renal blood flow but not cardiac output in pigs with biventricular failure.
There is a model of biventricular heart failure in conscious pigs that is associated with reductions in renal blood flow and function. FIG. 3 illustrates the model and the perturbation in renal blood flow. This is an important model of cardio-renal syndrome in which renal and cardiac injury are found together. FIG. 4 illustrates a 50% reduction in renal blood flow without a reduction in cardiac output in conscious pigs with biventricular failure.

Another test has as its system HIF-1a. Put plainly: HIF-1a induction in normal hearts. The format is in vivo. The following applies: intravenous continuous administration. An excerpt:
The induction of this cyto-protective program is beneficial in the face of subsequent ischemic injury in allografts. p38 MAP kinase activation has been associated with the stabilization of praline residues which otherwise target the HIF-1a subunits to ubiquinization. The stabilization allows the subunits to form heterodimers which active a gene program of cytoprotection.

Ends that are not written are not given here.

With “GLP-1 (7-36) amide (HAEGTFTSDVSSYLEGQAAKEFIAWLVKGR-NH2)”, in test [1], the natriuresis entry was “significant natriuresis that required reduction in diuretic doses”. Besides, the “peri-infarct and global LV function” value in test [2] (1.5 pmol/kg/min at the time of reperfusion, humans with acute myocardial infarction, versus patients on comparable therapies without GLP-1) is “improved peri-infarct and global LV function”. Besides, the myocardial glucose uptake result in test [3] was “increase myocardial glucose uptake independent of an increase in circulating insulin”. In addition, in the test on conscious dogs, the “recovery of left ventricular function” value was “more rapid and complete recovery of left ventricular function”.

“GLP-1 (9-36) amide (EGTFTSDVSSYLEGQAAKEFIAWLVKGR-NH2)”: the myocardial glucose uptake result in test [3] is recorded as “increase myocardial glucose uptake independent of an increase in circulating insulin”.

Regarding Glucagon-like peptide-1 [GLP-1], in test [2] (GLP-1 infusion, population not given), the “requirement for inotropic and pressure support” value is “reduces the requirement for inotropic and pressure support”. In test [4], the GFR entry is “improvement in GFR”, the renal blood flow entry was “returned renal blood flow to near normal levels” and the urinary sodium excretion result is given as “increased urinary sodium excretion”. Besides, in the test with HIF-1a, the “HIF-1a mRNA” value is on record as “increases in HIF-1a mRNA” and the “expression of HIF-1a inducible genes, heme-oxygenase-1 (HO-1)” value is recorded as “increased expression of HIF-1a inducible genes, heme-oxygenase-1 (HO-1)”.
